Data published in patent US20220056043A1, “NITROGEN-CONTAINING FUSED CYCLIC COMPOUND, PREPARATION METHOD THEREFOR AND USE THEREOF” (SICHUAN KELUN-BIOTECH BIOPHARMACEUTICAL CO., LTD., priority 2019, published 2022).
Counter-ions that a name gives are not always drawn.

Legend:
[1] = target: T1, hTLR7 (Homo sapiens, UniProt Q9NYK1); test: Agonistic effect on hTLR7, HEK-hTLR7-NF-κB-Luciferase reporter cells; assay type: cell-based; details: 16 hours
T1 construct: host or cells: HEK-hTLR7-NF-κB-Luciferase cells
T1 sequence (Q9NYK1 27-1049): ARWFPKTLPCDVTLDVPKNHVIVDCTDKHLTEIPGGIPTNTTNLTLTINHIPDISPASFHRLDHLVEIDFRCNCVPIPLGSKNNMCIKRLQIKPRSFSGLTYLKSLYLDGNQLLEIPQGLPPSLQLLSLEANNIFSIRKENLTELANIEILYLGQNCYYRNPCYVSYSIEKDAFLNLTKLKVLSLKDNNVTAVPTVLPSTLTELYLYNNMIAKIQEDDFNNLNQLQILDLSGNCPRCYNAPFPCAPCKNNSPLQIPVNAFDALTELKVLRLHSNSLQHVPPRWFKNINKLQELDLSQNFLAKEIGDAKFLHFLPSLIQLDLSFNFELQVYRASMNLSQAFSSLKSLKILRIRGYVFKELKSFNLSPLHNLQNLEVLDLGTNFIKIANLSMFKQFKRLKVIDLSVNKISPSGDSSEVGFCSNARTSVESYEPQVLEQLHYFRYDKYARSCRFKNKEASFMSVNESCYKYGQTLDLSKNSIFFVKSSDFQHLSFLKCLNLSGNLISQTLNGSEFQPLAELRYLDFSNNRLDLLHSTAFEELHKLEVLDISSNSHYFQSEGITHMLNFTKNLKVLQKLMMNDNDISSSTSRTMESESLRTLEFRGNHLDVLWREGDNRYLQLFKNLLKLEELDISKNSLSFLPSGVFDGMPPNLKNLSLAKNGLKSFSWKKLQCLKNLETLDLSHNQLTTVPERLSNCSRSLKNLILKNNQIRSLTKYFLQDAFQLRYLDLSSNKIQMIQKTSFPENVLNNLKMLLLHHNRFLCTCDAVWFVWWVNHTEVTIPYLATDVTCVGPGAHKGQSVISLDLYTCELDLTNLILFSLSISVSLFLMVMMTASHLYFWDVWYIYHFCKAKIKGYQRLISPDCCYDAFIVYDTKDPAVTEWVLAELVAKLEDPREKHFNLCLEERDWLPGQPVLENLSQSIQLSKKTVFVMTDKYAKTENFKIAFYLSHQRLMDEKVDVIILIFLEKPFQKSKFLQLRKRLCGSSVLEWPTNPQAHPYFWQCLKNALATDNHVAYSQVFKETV
Source text: Experimental Example 3: Agonistic Effect of the Compound of the Invention on hTLR7
In this test, the luciferase in HEK-hTLR7-NF-κB-reporter cells was detected to test the activating effect of the compound of the invention on TLR7 signaling pathway, so as to evaluate the specificity of the agonistic effect of the compound on NLRP3 pathway.
Reagents: DMEM (High glucose); FBS (fetal bovine serum) (Gibco); Bright-Glo™ Luciferase detection kit (Promega)
Cells: HEK-hTLR7-NF-κB-Luciferase gene cells (human TLR7 NF-κB-luciferase reporter gene cells) (Nanjing Cobioer)
1) The HEK-hTLR7-NF-κB-Luciferase cells in a logarithmic growth phase were trypsinized and resuspended in the medium to a concentration of 2×10^6 cells/mL. 50 μL/well of the cell resuspension was added to a 96-well plate such that the number of cells in each well was […]. An appropriate amount of 10 mM DMSO solution of the compound to be tested was taken and diluted to a concentration of 2× test concentration with the medium. 50 μL/well was added to the cells in the 96-well plate, and the 96-well plate was incubated in an incubator at 37° C. and 5% CO2 for 16 hours. The medium was DMEM (High glucose) containing 10% FBS.
2) After the cell incubation, 100 μL/well of Bright-Glo™ Luciferase detection reagent was added, and the mixture was incubated at room temperature for 5 minutes. Relative luciferase activity unit (RLU) was read using a microplate reader.
3) The EC50 of effect of the tested compound to stimulate hTLR7 was fitted by the GraphPad software log(agonist) vs. response—Variable slope four-parameter method.

[2] = tested on: THP1-defNLRP3 cells; test: Agonistic effect on the expression of IL-1β in NLRP3 deficient THP1 cells (THP1-defNLRP3) after PMA-induced differentiation (HTRF); assay type: cell-based, human; details: Homo sapiens, THP-1; IL-1β level, PMA-differentiated NLRP3 deficient THP1 cells, 6 hours; highest test concentration 30 μM; read-out: hNLRP3 EC50 (μM) (THP-1defNLRP3)
Source text: Experimental Example 2: Agonistic Effect of the Compound of the Invention on the Expression of IL-1β in NLRP3 Deficient THP1 Cells (THP1-defNLRP3 Cells) after PMA-Induced Differentiation
In this test, a HTRF detection method was used to test the effect of the compound of the invention on the level of IL-1β in THP1-defNLRP3 cells to evaluate the specificity of the agonistic effect of the compound on hNLRP3 inflammasome or hNLRP3 inflammasome pathway.
Reagents: as described in Experimental Example 1
Cell: THP1-defNLRP3 (InvivoGen)
Kit: IL-1β assay kit (CISBIO)
1) THP1-defNLRP3 cells in a logarithmic growth phase were seeded in a T75 culture flask at a density of 5×10^5 cells/well, and cultured in a cell incubator at 37° C., 5% CO2 for 24 hours, and then 1 μM PMA was used to induce THP1-defNLRP3 suspension cells to become adherent macrophages. The medium was RPMI 1640 containing 10% heat-inactivated FBS and 0.05 mM β-mercaptoethanol.
2) The cells were induced and cultured for 24 hours. Then the adherent cells were trypsinized and centrifuged at 1000 rpm for 5 min. The supernatant was removed, and the cells were resuspended to a density of 2×10^6 cells/mL in RPMI 1640 medium containing 2% heat-inactivated FBS. 50 μL/well of the cell resuspension was taken and spread on a 96-well plate such that the number of cells in each well was 1×10^5.
3) An appropriate amount of 10 mM DMSO solution of the compound to be tested was taken and diluted to a concentration of 2× test concentration with RPMI 1640 medium containing 2% heat-inactivated FBS. 50 μL/well of the dilution was added to the cells in the 96-well plate, and mixed well. The plate was incubated in a cell incubator at 37° C., 5% CO2 for 6 hours. The supernatant was collected, and the level of IL-1β was measured in accordance with the instructions of the IL-1β detection kit.
4) EC50 was fitted by the GraphPad software log(agonist) vs. response—Variable slope four-parameter method.

Row | EC50 [1] | EC50 [2] | Structure (SMILES)
1 | > 100 µM | > 30 µM | COC1(C)CCN(c2cc(N)nc3cc(-c4ccn[nH]4)sc23)CC1 [Compound 165]
2 | > 100 µM | > 30 µM | N#CC1(CNc2cc(N)nc3cc(-c4ccn[nH]4)sc23)CC1 [Compound 119]
3 | > 100 µM | > 30 µM | Nc1cc(N2CCN(c3ccccc3)CC2)c2sc(-c3ccn[nH]3)cc2n1 [Compound 174]
4 | > 100 µM | > 30 µM | Nc1cc(N2CCN(C3CC3)CC2)c2sc(-c3ccn[nH]3)cc2n1 [Compound 163]
5 | > 100 µM | > 30 µM | COC(C)(C)CNc1cc(N)nc2cc(-c3ccn[nH]3)sc12 [Compound 111, N^7-(2′-methoxy-2′-methylpropyl)-2-(1H-pyrazol-5-yl)thieno[3,2-b]pyridine-5,7-diamine]
6 | > 100 µM | > 30 µM | Nc1cc(N[C@H]2C[C@H]2CO)c2sc(-c3ccn[nH]3)cc2n1 [Compound 182s]
7 | > 100 µM | > 30 µM | CC1(CNc2cc(N)nc3cc(-c4ccn[nH]4)sc23)COC1 [Compound 121, N^7-((3-methyloxetan-3-yl)methyl)-2-(1H-pyrazol-5-yl)thieno[3,2-b]pyridine-5,7-diamine]
8 | > 100 µM | > 30 µM | CC1(C)CN(c2cc(N)nc3cc(-c4ccn[nH]4)sc23)CCO1 [Compound 171]
9 | > 100 µM | > 30 µM | Nc1cc(N2CCNCC2)c2sc(-c3ccn[nH]3)cc2n1 [Compound 175]

Second part, the molecule before the results:

Row | Structure (SMILES) | EC50 [1] | EC50 [2]
10 | CN1CCC(Nc2cc(N)nc3cc(-c4ccn[nH]4)sc23)CC1 [Compound 89, N^7-(1-methylpiperidin-4-yl)-2-(1H-pyrazol-5-yl)thieno[3,2-b]pyridine-5,7-diamine] | > 100 µM | > 30 µM
11 | CN1CCN(CCCNc2cc(N)nc3cc(-c4ccn[nH]4)sc23)CC1 [Compound 54, N^7-(3-(4-methylpiperazin-1-yl)propyl)-2-(1H-pyrazol-5-yl)thieno[3,2-b]pyridine-5,7-diamine] | > 100 µM | > 30 µM
12 | C[C@@H](CO)Nc1cc(N)nc2cc(-c3ccn[nH]3)sc12 [Compound 108, (S)-2-((5-amino-2-(1H-pyrazol-5-yl)thieno[3,2-b]pyridin-7-yl)amino)propanol] | > 100 µM | > 30 µM
13 | Nc1cc(NCC(F)(F)c2ccccn2)c2sc(-c3ccn[nH]3)cc2n1 [Compound 97, N^7-(2,2-difluoro-2-(pyridin-2-yl)ethyl)-2-(1H-pyrazol-5-yl)thieno[3,2-b]pyridine-5,7-diamine] | > 100 µM | > 30 µM
14 | Nc1cc(N[C@@H]2CC[C@@H](O)C2)c2sc(-c3ccn[nH]3)cc2n1 [Compound 30s, (1R,3R)-3-((5-amino-2-(1H-pyrazol-5-yl)thieno[3,2-b]pyridin-7-yl)amino)cyclopentanol hydrochloride] | > 100 µM | > 30 µM
15 | Nc1cc(N2CC3CC(C2)N3C=O)c2sc(-c3ccn[nH]3)cc2n1 [Compound 179] | > 100 µM | > 30 µM
16 | Nc1cc(NCCN2CCOCC2)c2sc(-c3ccn[nH]3)cc2n1 [Compound 55, N^7-(2-morpholinoethyl)-2-(1H-pyrazol-5-yl)thieno[3,2-b]pyridine-5,7-diamine] | > 100 µM | > 30 µM
17 | C[C@H](O)CNc1cc(N)nc2cc(-c3ccn[nH]3)sc12 [Compound 33] | > 100 µM | > 30 µM
18 | Cc1cccc(-c2cc3nc(N)cc(NCCCO)c3s2)n1 [Compound 91, 3-((5-amino-2-(6-methylpyridin-2-yl)thieno[3,2-b]pyridin-7-yl)amino)-1-propanol] | > 100 µM | > 30 µM
19 | Nc1cc(NC2CCCC2)c2sc(-c3ccn[nH]3)cc2n1 [Compound 110, N^7-cyclopentyl-2-(1H-pyrazol-5-yl)thieno[3,2-b]pyridine-5,7-diamine] | > 100 µM | > 30 µM
20 | CC(=O)N(C)CCCNc1cc(N)nc2cc(-c3ccn[nH]3)sc12 [Compound 74, N-(3-((5-amino-2-(1H-pyrazol-5-yl)thieno[3,2-b]pyridin-7-yl)amino)propyl)-N-methylacetamide] | > 100 µM | > 30 µM
